We go through six compounds from ChEMBL document CHEMBL1201862, “PubChem BioAssay data set” (2004).

SMILES strings stand for the structures. Activity calls are given as the source filed them.

The target of assay [1] is T1, G-protein coupled receptor 35 (Homo sapiens, UniProt Q9HC97). As to the kind of experiment: SAR Analysis for the identification of Selective Antagonists of ERK1/2 Activity in GPR35-Overexpressing U2OS Cells. [Related pubchem assays: 2079, 2058 ]. The assay is classed as functional, cell-based.
T1 sequence (Q9HC97 whole entry): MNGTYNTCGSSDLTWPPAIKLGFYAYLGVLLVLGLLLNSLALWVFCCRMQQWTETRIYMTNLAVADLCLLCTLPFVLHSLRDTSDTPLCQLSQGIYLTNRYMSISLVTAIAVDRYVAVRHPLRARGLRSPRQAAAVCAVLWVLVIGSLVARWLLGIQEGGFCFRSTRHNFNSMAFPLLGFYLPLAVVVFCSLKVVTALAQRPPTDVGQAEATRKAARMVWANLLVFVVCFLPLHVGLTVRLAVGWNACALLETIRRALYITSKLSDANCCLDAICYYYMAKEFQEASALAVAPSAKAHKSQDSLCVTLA
Assay [2] addresses G-protein coupled receptor 55 (Homo sapiens, UniProt Q9Y2T6). As to the kind of experiment: GPR55 antagonists, SAR follow-up, counter-screen for GPR35 antagonist project, imaging, image-based (AID 2397). The assay is classed as functional. On the technique in general: The purpose of a counterscreen is to sort out artefacts and off-target activity.
Assay [3] concerns the target Tyrosine-protein phosphatase non-receptor type 12 (Homo sapiens, UniProt Q05209). As to the kind of experiment: SAR Selectivity Analysis of small molecule inhibitors of PEST using pCAP in a fluorescence assay. [Related pubchem assays (depositor defined):AID1779, AID1784, AID2135]. Type of assay: functional.
The target in another assay is T2, Protein RecA (Mycobacterium tuberculosis, UniProt P9WHJ3).
T2 sequence (P9WHJ3 whole entry): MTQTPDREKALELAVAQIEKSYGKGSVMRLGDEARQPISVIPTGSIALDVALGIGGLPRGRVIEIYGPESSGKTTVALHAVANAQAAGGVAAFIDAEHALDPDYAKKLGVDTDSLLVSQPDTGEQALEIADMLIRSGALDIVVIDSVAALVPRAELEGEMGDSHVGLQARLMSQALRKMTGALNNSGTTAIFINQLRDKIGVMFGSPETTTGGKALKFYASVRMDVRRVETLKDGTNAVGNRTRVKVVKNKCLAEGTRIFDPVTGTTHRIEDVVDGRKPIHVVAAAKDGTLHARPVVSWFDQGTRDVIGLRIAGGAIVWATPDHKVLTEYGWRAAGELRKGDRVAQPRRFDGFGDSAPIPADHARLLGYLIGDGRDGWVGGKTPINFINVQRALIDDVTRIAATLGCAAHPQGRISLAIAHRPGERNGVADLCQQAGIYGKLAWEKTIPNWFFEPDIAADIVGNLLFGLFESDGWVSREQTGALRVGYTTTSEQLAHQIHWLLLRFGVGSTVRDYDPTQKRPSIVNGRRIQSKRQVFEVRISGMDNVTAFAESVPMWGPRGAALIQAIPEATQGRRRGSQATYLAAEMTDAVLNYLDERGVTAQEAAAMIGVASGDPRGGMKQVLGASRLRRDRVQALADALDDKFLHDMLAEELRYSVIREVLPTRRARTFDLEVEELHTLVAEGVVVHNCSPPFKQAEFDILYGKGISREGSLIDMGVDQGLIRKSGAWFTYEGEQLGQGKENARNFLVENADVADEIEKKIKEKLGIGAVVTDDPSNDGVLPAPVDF
Briefly: Fluorescence Cell-Free Homogeneous Dose Retest to Identify Inhibitors of RecA-Intein Splicing Activity. [Related pubchem assays (depositor defined):AID2097, AID2223, AID489010, AID492950]. The assay is classed as functional.

Assay [4] concerns the target T3, Tyrosine-protein phosphatase non-receptor type 22 (Homo sapiens, UniProt Q9Y2R2).
T3 sequence (Q9Y2R2 whole entry): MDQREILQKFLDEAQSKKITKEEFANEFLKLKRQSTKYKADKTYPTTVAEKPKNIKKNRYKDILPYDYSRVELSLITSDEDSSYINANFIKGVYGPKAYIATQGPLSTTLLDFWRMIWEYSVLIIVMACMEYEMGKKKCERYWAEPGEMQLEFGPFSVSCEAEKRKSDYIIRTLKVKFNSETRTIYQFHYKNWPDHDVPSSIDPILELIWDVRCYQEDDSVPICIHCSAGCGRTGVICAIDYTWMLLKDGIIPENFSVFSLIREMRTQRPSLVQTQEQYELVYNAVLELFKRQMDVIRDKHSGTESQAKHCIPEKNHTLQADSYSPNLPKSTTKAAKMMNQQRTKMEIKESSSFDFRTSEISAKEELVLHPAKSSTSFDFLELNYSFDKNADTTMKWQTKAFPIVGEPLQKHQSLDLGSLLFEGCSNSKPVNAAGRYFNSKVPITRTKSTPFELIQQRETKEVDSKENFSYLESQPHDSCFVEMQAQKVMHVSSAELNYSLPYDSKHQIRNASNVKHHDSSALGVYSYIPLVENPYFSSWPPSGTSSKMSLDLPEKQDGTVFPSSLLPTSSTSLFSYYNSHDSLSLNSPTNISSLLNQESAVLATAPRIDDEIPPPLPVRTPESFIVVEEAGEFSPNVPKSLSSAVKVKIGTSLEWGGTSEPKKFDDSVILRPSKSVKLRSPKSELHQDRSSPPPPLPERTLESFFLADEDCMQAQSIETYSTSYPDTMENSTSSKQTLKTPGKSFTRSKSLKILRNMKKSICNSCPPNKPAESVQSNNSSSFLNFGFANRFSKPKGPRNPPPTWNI
As to the kind of experiment: SAR LYP1 Fluorescent Assay using OMFP substrate for In Vitro dose response studies - Set 3. [Related pubchem assays (depositor defined):AID1779, AID1784, AID2140, AID2686]. The assay is classed as functional.

Assay [5] has as its target T3, Tyrosine-protein phosphatase non-receptor type 22. As to the kind of experiment: LYP (PTPN22) phosphatase inhibitor potency, SAR follow-up, biochemical, pCAP fluorogenic substrate, fluorescence, set 3 (AID 449727). The assay is classed as functional.
Assay [6] addresses T4, Replicative DNA helicase DnaB (Mycobacterium tuberculosis, UniProt P9WMR3).
T4 sequence (P9WMR3 whole entry): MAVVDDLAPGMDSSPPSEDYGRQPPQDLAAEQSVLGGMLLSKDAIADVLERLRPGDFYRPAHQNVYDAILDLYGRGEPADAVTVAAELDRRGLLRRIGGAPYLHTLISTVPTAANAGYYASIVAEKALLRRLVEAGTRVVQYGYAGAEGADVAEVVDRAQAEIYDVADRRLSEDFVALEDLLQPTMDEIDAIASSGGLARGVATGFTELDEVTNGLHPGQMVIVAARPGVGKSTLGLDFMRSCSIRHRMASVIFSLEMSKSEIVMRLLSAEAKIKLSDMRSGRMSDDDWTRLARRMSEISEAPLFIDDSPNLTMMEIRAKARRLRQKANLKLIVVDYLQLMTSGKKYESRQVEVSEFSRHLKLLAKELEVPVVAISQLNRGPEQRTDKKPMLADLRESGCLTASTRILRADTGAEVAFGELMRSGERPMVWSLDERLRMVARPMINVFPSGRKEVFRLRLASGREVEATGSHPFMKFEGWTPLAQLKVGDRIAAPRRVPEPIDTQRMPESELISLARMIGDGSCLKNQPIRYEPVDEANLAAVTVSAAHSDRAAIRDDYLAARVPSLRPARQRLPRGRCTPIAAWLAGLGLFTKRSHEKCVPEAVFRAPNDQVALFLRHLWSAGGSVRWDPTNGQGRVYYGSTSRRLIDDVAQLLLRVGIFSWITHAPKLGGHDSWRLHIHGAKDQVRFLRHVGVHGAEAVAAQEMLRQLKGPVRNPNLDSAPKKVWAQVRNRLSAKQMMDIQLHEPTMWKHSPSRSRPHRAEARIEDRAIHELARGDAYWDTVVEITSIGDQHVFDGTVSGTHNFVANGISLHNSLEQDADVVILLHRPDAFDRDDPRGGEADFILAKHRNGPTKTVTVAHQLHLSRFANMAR
Briefly: DnaB intein splicing inhibitors, dose response, biochemical, cell-free fluorescence (AID 449749). The assay is classed as functional.

Assay [7] has as its target T1, G-protein coupled receptor 35. Briefly: GPR35 antagonists blocking zaprinast-driven arrestin recruitment, primary screen, imaging, U2OS, beta-arrestin-GFP, zaprinast agonist (AID 2058).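 Also: antagonist potency meaning inhibition of agonist-induced arrestin redistribution.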 Type of assay: functional. In general terms: Activated receptors often draw arrestin, which recruitment assays turn into a signal.
The nature of assay [8]: Luminescence Cell-Based Dose Retest to Confirm Inhibitors of Cancer Stem Cells. [Related pubchem assays (depositor defined):AID2717, AID2721]. The assay is classed as functional. The settings on record: Homo sapiens.
Assay [9] in a line: cytotoxicity in MIN6 insulinoma cells, dose response, cytotoxicity control, cell-based, mouse insulinoma (AID 2122).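 Also: confirmatory high-throughput counterscreen run to flag cytotoxic compounds; mouse MIN-6 beta cells carrying an insulin promoter eGFP reporter.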 Type of assay: functional.
Assay [10] is described as follows: insulin promoter down-regulators in MIN6 cells, imaging, high-content screening, mouse beta cells (AID 1628). The assay is classed as functional.
The target of assay [11] is DNA dC->dU-editing enzyme APOBEC-3G (Homo sapiens, UniProt Q9HC16). As to the kind of experiment: Dose Response confirmation of small molecule APOBEC3G DNA Deaminase Inhibitors via a fluorescence-based single-stranded DNA deaminase assay. [Related pubchem assays (depositor defined):AID493012, AID493028]. The assay is classed as functional.
DNA dC->dU-editing enzyme APOBEC-3G, sequence (Q9HC16 whole entry): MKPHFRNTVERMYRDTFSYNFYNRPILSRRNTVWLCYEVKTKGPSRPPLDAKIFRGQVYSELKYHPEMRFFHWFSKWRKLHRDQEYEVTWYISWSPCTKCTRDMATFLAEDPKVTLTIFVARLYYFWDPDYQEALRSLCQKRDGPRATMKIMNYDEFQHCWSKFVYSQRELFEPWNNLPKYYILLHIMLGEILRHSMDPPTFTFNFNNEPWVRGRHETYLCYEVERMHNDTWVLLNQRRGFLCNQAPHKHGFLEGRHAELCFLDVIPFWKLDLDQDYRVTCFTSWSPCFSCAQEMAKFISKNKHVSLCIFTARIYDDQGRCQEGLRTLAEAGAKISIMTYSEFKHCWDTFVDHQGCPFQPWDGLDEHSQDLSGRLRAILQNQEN
Assay [12] has as its target DNA dC->dU-editing enzyme APOBEC-3A (Homo sapiens, UniProt P31941). Briefly: APOBEC3A DNA deaminase inhibitors, dose response, biochemical (AID 504722). Type of assay: functional.
Assay [13] deals with T5, Mannose-6-phosphate isomerase (Homo sapiens, UniProt P34949).
T5 sequence (P34949 whole entry): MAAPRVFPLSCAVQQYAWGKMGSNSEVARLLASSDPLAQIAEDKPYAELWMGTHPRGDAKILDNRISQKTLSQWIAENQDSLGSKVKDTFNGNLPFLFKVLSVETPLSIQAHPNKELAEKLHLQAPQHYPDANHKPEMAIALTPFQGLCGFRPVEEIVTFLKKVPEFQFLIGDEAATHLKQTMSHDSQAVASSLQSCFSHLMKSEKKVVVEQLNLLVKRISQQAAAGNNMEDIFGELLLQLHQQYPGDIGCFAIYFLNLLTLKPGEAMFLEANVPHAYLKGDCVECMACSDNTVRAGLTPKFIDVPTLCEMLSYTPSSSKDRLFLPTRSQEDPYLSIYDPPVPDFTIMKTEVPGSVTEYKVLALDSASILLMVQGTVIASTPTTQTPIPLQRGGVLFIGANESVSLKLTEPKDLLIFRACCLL
As to the kind of experiment: PMI enzyme inhibitors, confirmation, biochemical, fluorescence intensity (AID 1535).

A further assay has as its target Phosphomannomutase 2 (Homo sapiens, UniProt O15305). As to the kind of experiment: Counter screen SAR assay for PMM2 inhibitors via a fluorescence intensity assay. [Related pubchem assays (depositor defined):AID1545, AID1574].
Assay [14] is described as follows: inhibitors of intracellular T. cruzi replication, confirmation, NIH3T3 host cells, beta-gal luminescence (AID 2044).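 Also: intracellular parasites grown in NIH/3T3 mouse fibroblasts as host cells; luminescent beta-galactosidase reporter signal from transgenic T. cruzi replicating inside host cells; inhibitors lower the luminescence signal.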 Type of assay: functional, cell-based.
The nature of assay [15]: cytotoxicity toward NIH3T3 fibroblasts, dose response, counter-screen, cell-based, ATP luminescence, mouse fibroblasts (AID 2010).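 Also: cells exposed to compound for about 90 hours before reading.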 Type of assay: functional.
In the next assay the target is Trypsin (Sus scrofa, UniProt P00761). As to the kind of experiment: porcine trypsin inhibitors, dose response, selectivity assay for Rce1 protease inhibitor project, biochemical, quenched peptide fluorescence, cherry-pick (AID 488789).
Trypsin, sequence (P00761 whole entry): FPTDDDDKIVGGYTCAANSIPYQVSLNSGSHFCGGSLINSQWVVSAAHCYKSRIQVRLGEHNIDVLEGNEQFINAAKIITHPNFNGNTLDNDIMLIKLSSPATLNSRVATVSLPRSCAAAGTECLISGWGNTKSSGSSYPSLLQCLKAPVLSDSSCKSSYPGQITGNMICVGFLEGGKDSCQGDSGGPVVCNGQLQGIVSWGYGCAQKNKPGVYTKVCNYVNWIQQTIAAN
Another assay concerns the target T6, CAAX prenyl protease 2 (Saccharomyces cerevisiae S288c, UniProt Q03530).
T6 sequence (Q03530 whole entry): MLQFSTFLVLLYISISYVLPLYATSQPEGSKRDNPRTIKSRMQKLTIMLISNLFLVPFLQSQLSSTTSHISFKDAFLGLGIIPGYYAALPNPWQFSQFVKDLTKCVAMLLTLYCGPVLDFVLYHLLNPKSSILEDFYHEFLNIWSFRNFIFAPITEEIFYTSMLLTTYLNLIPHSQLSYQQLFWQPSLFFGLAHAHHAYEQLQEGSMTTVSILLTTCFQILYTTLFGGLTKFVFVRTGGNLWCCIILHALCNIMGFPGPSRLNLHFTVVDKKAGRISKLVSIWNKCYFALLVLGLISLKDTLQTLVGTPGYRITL
Type of assay: biochemical.

For the next assay, the target named is CAAX prenyl protease 1 (Saccharomyces cerevisiae S288c, UniProt P47154). As to the kind of experiment: Ste24 protease inhibitors, dose response, biochemical, S. cerevisiae, plate reader, cherry-pick (AID 488815).
CAAX prenyl protease 1, sequence (P47154 whole entry): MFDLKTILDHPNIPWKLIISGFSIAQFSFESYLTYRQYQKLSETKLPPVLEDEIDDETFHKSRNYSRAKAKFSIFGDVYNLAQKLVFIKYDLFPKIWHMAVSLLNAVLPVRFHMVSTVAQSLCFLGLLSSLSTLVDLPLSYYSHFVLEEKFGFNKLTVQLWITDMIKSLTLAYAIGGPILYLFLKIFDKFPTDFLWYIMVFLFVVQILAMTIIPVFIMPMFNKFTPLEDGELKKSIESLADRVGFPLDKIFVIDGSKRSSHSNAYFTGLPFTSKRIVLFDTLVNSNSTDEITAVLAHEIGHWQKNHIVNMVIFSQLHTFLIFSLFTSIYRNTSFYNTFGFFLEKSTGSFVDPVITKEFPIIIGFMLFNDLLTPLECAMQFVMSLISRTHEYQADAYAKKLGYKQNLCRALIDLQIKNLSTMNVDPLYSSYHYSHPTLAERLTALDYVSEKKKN

Phosphomannomutase 2, sequence (O15305 whole entry): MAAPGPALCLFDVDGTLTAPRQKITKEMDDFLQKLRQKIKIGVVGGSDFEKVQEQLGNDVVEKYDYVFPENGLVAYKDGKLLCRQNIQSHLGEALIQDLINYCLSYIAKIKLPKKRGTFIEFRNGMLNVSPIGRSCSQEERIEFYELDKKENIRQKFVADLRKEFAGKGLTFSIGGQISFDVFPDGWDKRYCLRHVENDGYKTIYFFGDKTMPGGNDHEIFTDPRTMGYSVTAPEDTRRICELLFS
DNA dC->dU-editing enzyme APOBEC-3A, sequence (P31941 whole entry): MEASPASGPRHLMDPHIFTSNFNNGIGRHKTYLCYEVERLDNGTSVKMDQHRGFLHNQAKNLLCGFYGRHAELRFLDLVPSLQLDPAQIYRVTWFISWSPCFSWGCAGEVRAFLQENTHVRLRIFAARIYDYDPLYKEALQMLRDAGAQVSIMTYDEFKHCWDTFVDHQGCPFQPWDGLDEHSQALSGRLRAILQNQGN
Tyrosine-protein phosphatase non-receptor type 12, sequence (Q05209 whole entry): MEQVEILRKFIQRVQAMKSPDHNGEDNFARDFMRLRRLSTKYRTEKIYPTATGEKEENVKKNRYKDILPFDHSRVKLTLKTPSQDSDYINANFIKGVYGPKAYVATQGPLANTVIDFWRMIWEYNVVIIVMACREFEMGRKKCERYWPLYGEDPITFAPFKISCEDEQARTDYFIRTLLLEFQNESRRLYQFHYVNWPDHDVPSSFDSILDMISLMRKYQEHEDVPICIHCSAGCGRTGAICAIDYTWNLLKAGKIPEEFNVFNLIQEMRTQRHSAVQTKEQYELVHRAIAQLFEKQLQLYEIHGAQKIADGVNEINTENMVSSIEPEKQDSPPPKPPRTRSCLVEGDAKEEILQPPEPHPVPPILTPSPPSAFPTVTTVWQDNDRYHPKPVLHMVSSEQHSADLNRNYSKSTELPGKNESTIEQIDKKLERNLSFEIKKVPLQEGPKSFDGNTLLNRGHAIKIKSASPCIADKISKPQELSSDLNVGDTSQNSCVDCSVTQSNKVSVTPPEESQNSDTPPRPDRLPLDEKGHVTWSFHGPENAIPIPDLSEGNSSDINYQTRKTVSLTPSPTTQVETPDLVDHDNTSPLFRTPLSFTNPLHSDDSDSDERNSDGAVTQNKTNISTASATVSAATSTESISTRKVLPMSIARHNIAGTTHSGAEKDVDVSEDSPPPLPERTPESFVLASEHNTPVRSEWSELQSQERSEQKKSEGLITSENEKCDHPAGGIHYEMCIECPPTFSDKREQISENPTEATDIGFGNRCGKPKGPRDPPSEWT
G-protein coupled receptor 55, sequence (Q9Y2T6 whole entry): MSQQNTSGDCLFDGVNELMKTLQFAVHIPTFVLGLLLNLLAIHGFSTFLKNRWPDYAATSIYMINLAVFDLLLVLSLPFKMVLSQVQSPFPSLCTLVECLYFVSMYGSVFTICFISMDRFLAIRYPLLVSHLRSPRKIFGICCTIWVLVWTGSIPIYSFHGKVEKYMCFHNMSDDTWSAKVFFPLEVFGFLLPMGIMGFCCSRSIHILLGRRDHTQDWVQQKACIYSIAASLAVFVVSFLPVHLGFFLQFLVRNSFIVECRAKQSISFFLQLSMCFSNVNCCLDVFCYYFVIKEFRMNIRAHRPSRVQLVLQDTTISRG

In the case of `O=C(CCCN1C(=O)/C(=C/c2ccccc2)SC1=S)Nc1ccc(C(=O)O)c(O)c1`, the IC50 in [1] was 2.67 µM (active); in assay [2], > 32 µM (inactive); in assay [3], 17.2 µM (active); in [4], > 100 µM (inactive); in assay [5] it was 85 µM (active); in [7], < 0.5 µM (active). The EC50 on Protein RecA was 15.4 µM (active). Also, the AC50 in assay [6] was 12.3 µM (active).
Consider `COc1c(Cl)cc(Cl)cc1/C=C/C(=O)c1ccc(NC(=O)c2cccs2)cc1`, for which the AC50 in assay [8] is 1.12 µM (active). For the same compound, the results for the IC50 in assay [9] and in [10] were 1.35 µM (active) and 2.56 µM (active), respectively.
As to `COc1ccc(OC)c(/N=c2\ssnc2Cl)c1`, the IC50 in assay [11] was 15.4 µM (active); in [12], > 100 µM (inactive); in assay [13], 4.35 µM (active); on Phosphomannomutase 2, > 100 µM (inactive).
For the compound `CN1/C(=C/C(=S)NC(=O)C2(C)CC2(Cl)Cl)C(C)(C)c2ccccc21` (centres undefined), the results for the IC50 in assay [9] and in assay [10] were 0.851 µM (active) and 2.5 µM (active), respectively. Also, the EC50 in assay [14] was 3.4 µM (active); in [15] it was > 60 µM (not active).
For `CC(C)c1cc(=O)oc2c3c4c(cc12)CCCN4CCC3`, the AC50 on Trypsin is 24.1 µM (active); at CAAX prenyl protease 2, > 100 µM (inactive); at CAAX prenyl protease 1, 4 µM (active).
As to `Cc1ccc(/N=c2\ssnc2Cl)cc1[N+](=O)[O-]`, the IC50 is 4.46 µM (active) in assay [13] and > 100 µM (inactive) at Phosphomannomutase 2.

Broadly, the IC50 is the concentration that gives 50% inhibition. By EC50 is commonly meant the midpoint of the concentration-response curve. A word on the AC50: it is the concentration giving half of the maximal activity seen.
